In ChEMBL document CHEMBL2046376, “Synthesis and antimicrobial activity of amide derivatives of polyether antibiotic-salinomycin” (2012):

What was measured:
Type in all cases: functional
Staphylococcus aureus [1] = test: Antibacterial activity against hospital-acquired methicillin-resistant Staphylococcus aureus 401/10 after 18 hrs by twofold serial agar dilution technique; conditions: 401/10, 18 h
Staphylococcus aureus [2] = test: Antibacterial activity against hospital-acquired methicillin-resistant Staphylococcus aureus 400/10 after 18 hrs by twofold serial agar dilution technique; conditions: 400/10, 18 h
Staphylococcus aureus [3] = test: Antibacterial activity against hospital-acquired methicillin-resistant Staphylococcus aureus 450/11 after 18 hrs by twofold serial agar dilution technique; conditions: 450/11, 18 h
Staphylococcus aureus [4] = test: Antibacterial activity against hospital-acquired methicillin-resistant Staphylococcus aureus 451/11 after 18 hrs by twofold serial agar dilution technique; conditions: 451/11, 18 h
Staphylococcus aureus [5] = test: Antibacterial activity against hospital-acquired methicillin-resistant Staphylococcus aureus 482/11 after 18 hrs by twofold serial agar dilution technique; conditions: 482/11, 18 h
Staphylococcus aureus [6] = test: Antibacterial activity against hospital-acquired methicillin-sensitive Staphylococcus aureus 449/11 after 18 hrs by twofold serial agar dilution technique; conditions: 449/11, 18 h
Staphylococcus aureus [7] = test: Antibacterial activity against hospital-acquired methicillin-resistant Staphylococcus aureus 481/11 after 18 hrs by twofold serial agar dilution technique; conditions: 481/11, 18 h
Staphylococcus aureus [8] = test: Antibacterial activity against hospital-acquired methicillin-sensitive Staphylococcus aureus 444/11 after 18 hrs by twofold serial agar dilution technique; conditions: 444/11, 18 h
Staphylococcus aureus [9] = test: Antibacterial activity against hospital-acquired methicillin-resistant Staphylococcus aureus 394/10 after 18 hrs by twofold serial agar dilution technique; conditions: 394/10, 18 h
Staphylococcus aureus [10] = test: Antibacterial activity against hospital-acquired methicillin-sensitive Staphylococcus aureus 440/11 after 18 hrs by twofold serial agar dilution technique; conditions: 440/11, 18 h
Staphylococcus aureus [11] = test: Antibacterial activity against hospital-acquired methicillin-sensitive Staphylococcus aureus 447/11 after 18 hrs by twofold serial agar dilution technique; conditions: 447/11, 18 h
Staphylococcus aureus [12] = test: Antibacterial activity against hospital-acquired methicillin-sensitive Staphylococcus aureus 445/11 after 18 hrs by twofold serial agar dilution technique; conditions: 445/11, 18 h
Staphylococcus aureus [13] = test: Antibacterial activity against hospital-acquired methicillin-sensitive Staphylococcus aureus 446/11 after 18 hrs by twofold serial agar dilution technique; conditions: 446/11, 18 h
Staphylococcus aureus [14] = test: Antibacterial activity against hospital-acquired methicillin-sensitive Staphylococcus aureus 442/11 after 18 hrs by twofold serial agar dilution technique; conditions: 442/11, 18 h
Staphylococcus aureus [15] = test: Antibacterial activity against hospital-acquired methicillin-sensitive Staphylococcus aureus 441/11 after 18 hrs by twofold serial agar dilution technique; conditions: 441/11, 18 h
Staphylococcus aureus [16] = test: Antibacterial activity against hospital-acquired methicillin-sensitive Staphylococcus aureus 443/11 after 18 hrs by twofold serial agar dilution technique; conditions: 443/11, 18 h
Staphylococcus aureus [17] = test: Antibacterial activity against hospital-acquired methicillin-resistant Staphylococcus aureus 393/10 after 18 hrs by twofold serial agar dilution technique; conditions: 393/10, 18 h
Staphylococcus aureus [18] = test: Antibacterial activity against hospital-acquired methicillin-resistant Staphylococcus aureus 399/10 after 18 hrs by twofold serial agar dilution technique; conditions: 399/10, 18 h
Staphylococcus aureus [19] = test: Antibacterial activity against hospital-acquired methicillin-resistant Staphylococcus aureus 452/11 after 18 hrs by twofold serial agar dilution technique; conditions: 452/11, 18 h
Staphylococcus aureus [20] = test: Antibacterial activity against hospital-acquired methicillin-sensitive Staphylococcus aureus 448/11 after 18 hrs by twofold serial agar dilution technique; conditions: 448/11, 18 h
Candida parapsilosis = test: Antifungal activity against Candida parapsilosis ATCC 22019 after 24 hrs by twofold serial agar dilution technique; conditions: Lodderomyces parapsilosis, ATCC 22019, 24 h
Candida albicans [21] = test: Antifungal activity against Candida albicans ATCC 10231 after 24 hrs by twofold serial agar dilution technique; conditions: ATCC 10231, 24 h
Escherichia coli [22] = test: Antibacterial activity against Escherichia coli ATCC 25922 after 18 hrs by twofold serial agar dilution technique; conditions: ATCC 25922, 18 h
Proteus vulgaris [23] = test: Antibacterial activity against Proteus vulgaris NCTC 4635 after 18 hrs by twofold serial agar dilution technique; conditions: NCTC 4635, 18 h
Staphylococcus aureus [24] = test: Antibacterial activity against Staphylococcus aureus ATCC 25923 after 18 hrs by twofold serial agar dilution technique; conditions: ATCC 25923, 18 h
Pseudomonas aeruginosa [25] = test: Antibacterial activity against Pseudomonas aeruginosa NCTC 6749 assessed as zone of inhibition at 400 ug/disc after 18 hrs by disc diffusion method; conditions: NCTC 6749, 18 h, read-out: DIZ
[26] = system: Staphylococcus epidermidis; test: Antibacterial activity against Staphylococcus epidermidis ATCC 12228 assessed as zone of inhibition at 400 ug/disc after 18 hrs by disc diffusion method; conditions: ATCC 12228, 18 h, read-out: DIZ
Pseudomonas aeruginosa [27] = test: Antibacterial activity against Pseudomonas aeruginosa NCTC 6749 after 18 hrs by twofold serial agar dilution technique; conditions: NCTC 6749, 18 h
Pseudomonas aeruginosa [28] = test: Antibacterial activity against Pseudomonas aeruginosa ATCC 27853 after 18 hrs by twofold serial agar dilution technique; conditions: ATCC 27853, 18 h
[29] = system: Bordetella bronchiseptica; test: Antibacterial activity against Bordetella bronchiseptica ATCC 4617 after 18 hrs by twofold serial agar dilution technique; conditions: ATCC 4617, 18 h
Staphylococcus aureus [30] = test: Antibacterial activity against Staphylococcus aureus ATCC 6538 after 18 hrs by twofold serial agar dilution technique; conditions: ATCC 6538, 18 h
Pseudomonas aeruginosa [31] = test: Antibacterial activity against Pseudomonas aeruginosa ATCC 27853 assessed as zone of inhibition at 400 ug/disc after 18 hrs by disc diffusion method; conditions: ATCC 27853, 18 h, read-out: DIZ
Escherichia coli [32] = test: Antibacterial activity against Escherichia coli NCTC 8196 assessed as zone of inhibition at 400 ug/disc after 18 hrs by disc diffusion method; conditions: NCTC 8196, 18 h, read-out: DIZ
[33] = system: Bordetella bronchiseptica; test: Antibacterial activity against Bordetella bronchiseptica ATCC 4617 assessed as zone of inhibition at 400 ug/disc after 18 hrs by disc diffusion method; conditions: ATCC 4617, 18 h, read-out: DIZ
Escherichia coli [34] = test: Antibacterial activity against Escherichia coli ATCC 10538 after 18 hrs by twofold serial agar dilution technique; conditions: ATCC 10538, 18 h
Pseudomonas aeruginosa [35] = test: Antibacterial activity against Pseudomonas aeruginosa ATCC 15442 assessed as zone of inhibition at 400 ug/disc after 18 hrs by disc diffusion method; conditions: ATCC 15442, 18 h, read-out: DIZ
Staphylococcus aureus [36] = test: Antibacterial activity against Staphylococcus aureus ATCC 25923 assessed as zone of inhibition at 400 ug/disc after 18 hrs by disc diffusion method; conditions: ATCC 25923, 18 h, read-out: DIZ
Staphylococcus aureus [37] = test: Antibacterial activity against Staphylococcus aureus ATCC 29213 assessed as zone of inhibition at 400 ug/disc after 18 hrs by disc diffusion method; conditions: ATCC 29213, 18 h, read-out: DIZ
Escherichia coli [38] = test: Antibacterial activity against Escherichia coli ATCC 25922 assessed as zone of inhibition at 400 ug/disc after 18 hrs by disc diffusion method; conditions: ATCC 25922, 18 h, read-out: DIZ
Staphylococcus aureus [39] = test: Antibacterial activity against Staphylococcus aureus ATCC 29213 after 18 hrs by twofold serial agar dilution technique; conditions: ATCC 29213, 18 h
Staphylococcus aureus [40] = test: Antibacterial activity against Staphylococcus aureus ATCC 6538 assessed as zone of inhibition at 400 ug/disc after 18 hrs by disc diffusion method; conditions: ATCC 6538, 18 h, read-out: DIZ
Proteus vulgaris [41] = test: Antibacterial activity against Proteus vulgaris NCTC 4635 assessed as zone of inhibition at 400 ug/disc after 18 hrs by disc diffusion method; conditions: NCTC 4635, 18 h, read-out: DIZ
[42] = system: Staphylococcus epidermidis; test: Antibacterial activity against Staphylococcus epidermidis ATCC 12228 after 18 hrs by twofold serial agar dilution technique; conditions: ATCC 12228, 18 h
[43] = system: Staphylococcus epidermidis; test: Antibacterial activity against Staphylococcus epidermidis ATCC 35984 assessed as zone of inhibition at 400 ug/disc after 18 hrs by disc diffusion method; conditions: ATCC 35984, 18 h, read-out: DIZ
Candida albicans [44] = test: Antifungal activity against Candida albicans ATCC 90028 after 24 hrs by twofold serial agar dilution technique; conditions: ATCC 90028, 24 h
[45] = system: Staphylococcus epidermidis; test: Antibacterial activity against Staphylococcus epidermidis ATCC 35984 after 18 hrs by twofold serial agar dilution technique; conditions: ATCC 35984, 18 h
Escherichia coli [46] = test: Antibacterial activity against Escherichia coli NCTC 8196 after 18 hrs by twofold serial agar dilution technique; conditions: NCTC 8196, 18 h
Pseudomonas aeruginosa [47] = test: Antibacterial activity against Pseudomonas aeruginosa ATCC 15442 after 18 hrs by twofold serial agar dilution technique; conditions: ATCC 15442, 18 h
Staphylococcus aureus [48] = test: Antibacterial activity against Staphylococcus aureus NCTC 4163 after 18 hrs by twofold serial agar dilution technique; conditions: NCTC 4163, 18 h
Staphylococcus aureus [49] = test: Antibacterial activity against Staphylococcus aureus NCTC 4163 assessed as zone of inhibition at 400 ug/disc after 18 hrs by disc diffusion method; conditions: NCTC 4163, 18 h, read-out: DIZ
Escherichia coli [50] = test: Antibacterial activity against Escherichia coli ATCC 10538 assessed as zone of inhibition at 400 ug/disc after 18 hrs by disc diffusion method; conditions: ATCC 10538, 18 h, read-out: DIZ

CC[C@@]1([C@@H]2O[C@@H]([C@H]3O[C@@](O)(CO)[C@H](C)C[C@@H]3C)C[C@@H]2C)CC[C@H]([C@]2(C)CC[C@]3(C[C@H](O)[C@@H](C)[C@@H]([C@@H](C)[C@@H](OC)[C@H](C)C(=O)O)O3)O2)O1 [MONENSIN]
4 µg/mL: MIC (Staphylococcus aureus [4]) | MIC (Staphylococcus aureus [8]) | MIC (Staphylococcus aureus [9]) | MIC (Staphylococcus aureus [15]) | MIC (Staphylococcus aureus [16]) | MIC (Staphylococcus aureus [17])
2 µg/mL: MIC (Staphylococcus aureus [1]) | MIC (Staphylococcus aureus [2]) | MIC (Staphylococcus aureus [3]) | MIC (Staphylococcus aureus [5]) | MIC (Staphylococcus aureus [6]) | MIC (Staphylococcus aureus [7]) | MIC (Staphylococcus aureus [10]) | MIC (Staphylococcus aureus [11]) | MIC (Staphylococcus aureus [12]) | MIC (Staphylococcus aureus [13]) | MIC (Staphylococcus aureus [14]) | MIC (Staphylococcus aureus [18]) | MIC (Staphylococcus aureus [19]) | MIC (Staphylococcus aureus [20])

CC[C@@H](C(=O)[C@@H](C)[C@@H](O)[C@H](C)[C@@H]1O[C@@H]([C@@H](CC)C(=O)NCCc2c[nH]c3ccccc23)CC[C@@H]1C)[C@H]1O[C@]2(C=C[C@@H](O)[C@]3(CC[C@@](C)([C@H]4CC[C@](O)(CC)[C@H](C)O4)O3)O2)[C@H](C)C[C@@H]1C
≥ 256 µg/mL: MIC (Candida parapsilosis) | MIC (Candida albicans [21]) | MIC (Escherichia coli [22]) | MIC (Proteus vulgaris [23]) | MIC (Staphylococcus aureus [24]) | MIC (Pseudomonas aeruginosa [27]) | MIC (Pseudomonas aeruginosa [28]) | MIC [29] | MIC (Staphylococcus aureus [30]) | MIC (Escherichia coli [34]) | MIC (Staphylococcus aureus [39]) | MIC [42] | MIC (Candida albicans [44]) | MIC [45] | MIC (Escherichia coli [46]) | MIC (Pseudomonas aeruginosa [47]) | MIC (Staphylococcus aureus [48])
10 mm: zone of inhibition at 400 µg/disc (Pseudomonas aeruginosa [25]) | zone of inhibition at 400 µg/disc [26] | zone of inhibition at 400 µg/disc (Pseudomonas aeruginosa [31]) | zone of inhibition at 400 µg/disc (Escherichia coli [32]) | zone of inhibition at 400 µg/disc [33] | zone of inhibition at 400 µg/disc (Pseudomonas aeruginosa [35]) | zone of inhibition at 400 µg/disc (Staphylococcus aureus [36]) | zone of inhibition at 400 µg/disc (Staphylococcus aureus [37]) | zone of inhibition at 400 µg/disc (Escherichia coli [38]) | zone of inhibition at 400 µg/disc (Staphylococcus aureus [40]) | zone of inhibition at 400 µg/disc (Proteus vulgaris [41]) | zone of inhibition at 400 µg/disc [43] | zone of inhibition at 400 µg/disc (Staphylococcus aureus [49]) | zone of inhibition at 400 µg/disc (Escherichia coli [50])

CC[C@@H](C(=O)[C@@H](C)[C@@H](O)[C@H](C)[C@@H]1O[C@@H]([C@@H](CC)C(=O)NCCOCCOCCOC)CC[C@@H]1C)[C@H]1O[C@]2(C=C[C@@H](O)[C@]3(CC[C@@](C)([C@H]4CC[C@](O)(CC)[C@H](C)O4)O3)O2)[C@H](C)C[C@@H]1C
≥ 256 µg/mL: MIC (Candida parapsilosis) | MIC (Candida albicans [21]) | MIC (Escherichia coli [22]) | MIC (Proteus vulgaris [23]) | MIC (Staphylococcus aureus [24]) | MIC (Pseudomonas aeruginosa [27]) | MIC (Pseudomonas aeruginosa [28]) | MIC [29] | MIC (Staphylococcus aureus [30]) | MIC (Escherichia coli [34]) | MIC (Staphylococcus aureus [39]) | MIC [42] | MIC (Candida albicans [44]) | MIC [45] | MIC (Escherichia coli [46]) | MIC (Pseudomonas aeruginosa [47]) | MIC (Staphylococcus aureus [48])
10 mm: zone of inhibition at 400 µg/disc (Pseudomonas aeruginosa [25]) | zone of inhibition at 400 µg/disc [26] | zone of inhibition at 400 µg/disc (Pseudomonas aeruginosa [31]) | zone of inhibition at 400 µg/disc (Escherichia coli [32]) | zone of inhibition at 400 µg/disc [33] | zone of inhibition at 400 µg/disc (Pseudomonas aeruginosa [35]) | zone of inhibition at 400 µg/disc (Staphylococcus aureus [36]) | zone of inhibition at 400 µg/disc (Staphylococcus aureus [37]) | zone of inhibition at 400 µg/disc (Escherichia coli [38]) | zone of inhibition at 400 µg/disc (Staphylococcus aureus [40]) | zone of inhibition at 400 µg/disc (Proteus vulgaris [41]) | zone of inhibition at 400 µg/disc [43] | zone of inhibition at 400 µg/disc (Staphylococcus aureus [49]) | zone of inhibition at 400 µg/disc (Escherichia coli [50])
